Results taken from US11191762B2, “Alkyl substituted triazole compounds as agonists of the APJ Receptor” (priority 2016, dated 2021).

Each compound was assayed against human APJ receptor (Homo sapiens (Human), UniProt P35414) (assay: biochemical). Conditions: [35S]GTPγS binding, membranes from CHO cells stably expressing human APJ receptor; read-out: Activity hAPJ SPA EC50 IP.
Format: biochemical
Protocol: The human APJ receptor was cloned by polymerase chain reaction and the gene encoding the receptor was subcloned in pFLAG-CMV™-3 expression vector (Sigma, Saint Louis, Mo. USA) in-house at Amgen. A GTPγS binding assay was performed on membranes prepared from CHO cells stably expressing human APJ receptor. The optimum experimental conditions for the concentrations of GDP, MgCl2, and NaCl in the assay buffer were initially determined. The assay was performed in 9 μL assay buffer [20 mM HEPES, pH 7.5, 5 mM MgCl2, 100 mM NaCl and 0.1% (w/v) BSA], 1 μL of diluted test compound (starting with 0.75 mM, 2-fold serial dilution with DMSO, total 22 points), 10 μL of 18 µM GDP (final concentration of 3 μM GDP), 20 μL of […] membrane protein expressing human APJ receptor captured with WGA PS beads (final concentration of 5 μg per well), and 20 μL of 0.3 nM [^35S]GTPγS (final concentration is 0.1 nM [^35S]GTPγS)(Perkin Elmer Life and Analytical Sciences, Waltham USA).

Chain of human APJ receptor (P35414 whole entry): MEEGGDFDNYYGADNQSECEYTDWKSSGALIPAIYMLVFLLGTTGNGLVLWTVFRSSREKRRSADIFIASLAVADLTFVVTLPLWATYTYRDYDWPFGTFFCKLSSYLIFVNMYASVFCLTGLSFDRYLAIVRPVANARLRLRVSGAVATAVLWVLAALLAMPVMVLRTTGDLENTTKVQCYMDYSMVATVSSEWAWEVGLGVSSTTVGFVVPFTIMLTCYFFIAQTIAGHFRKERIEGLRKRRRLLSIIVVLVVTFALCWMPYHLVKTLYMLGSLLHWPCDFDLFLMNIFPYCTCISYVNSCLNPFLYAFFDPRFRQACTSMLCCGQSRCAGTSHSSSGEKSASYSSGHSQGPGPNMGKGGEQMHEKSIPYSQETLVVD

Compound	EC50
COc1cccc(OC)c1-n1c(NS(=O)(=O)[C@@H](C)[C@H](C)c2ncc(C)cn2)nnc1[C@@H](OC)c1ccccc1 [Example 19.0, (2S,3R)-N-(4-(2,6-dimethoxyphenyl)-5-((S)-methoxy(phenyl)methyl)-4H-1,2,4-triazol-3-yl)-3-(5-methyl-2-pyrimidinyl)-2-butanesulfonamide]	200 nM
COc1cccc(OC)c1-n1c(Cc2ccc(C)cn2)nnc1NS(=O)(=O)[C@@H](C)[C@H](C)c1ncc(C)cn1 [Example 20.0, (2S,3R)-N-(4-(2,6-dimethoxyphenyl)-5-((5-methyl-2-pyridinyl)methyl)-4H-1,2,4-triazol-3-yl)-3-(5-methyl-2-pyrimidinyl)-2-butanesulfonamide]	> 4200 nM
COc1ncnc(OC)c1-n1c(Cc2ccccc2)nnc1NS(=O)(=O)[C@@H](C)[C@H](C)c1ncc(Cl)cn1 [Example 21.0, (2S,3R)-N-(5-benzyl-4-(4,6-dimethoxy-5-pyrimidinyl)-4H-1,2,4-triazol-3-yl)-3-(5-chloro-2-pyrimidinyl)-2-butanesulfonamide]	120 nM
COc1ncnc(OC)c1-n1c(Cc2ccccc2)nnc1NS(=O)(=O)[C@@H](C)[C@H](OC)c1ncc(Cl)cn1 [Example 22.0, (1R,2S)-N-(5-benzyl-4-(4,6-dimethoxy-5-pyrimidinyl)-4H-1,2,4-triazol-3-yl)-1-(5-chloro-2-pyrimidinyl)-1-methoxy-2-propanesulfonamide]	120 nM
COc1ncnc(OC)c1-n1c(Cc2ccccc2)nnc1NS(=O)(=O)[C@@H](C)[C@H](C)c1ncc(C)cn1 [Example 23.0, (2S,3R)-N-(5-benzyl-4-(4,6-dimethoxy-5-pyrimidinyl)-4H-1,2,4-triazol-3-yl)-3-(5-methyl-2-pyrimidinyl)-2-butanesulfonamide]	400 nM
COc1ncnc(OC)c1-n1c(CC2CCC2)nnc1NS(=O)(=O)[C@@H](C)[C@H](OC)c1ncc(Cl)cn1 [Example 24.0, (1R,2S)-1-(5-chloro-2-pyrimidinyl)-N-(5-(cyclobutylmethyl)-4-(4,6-dimethoxy-5-pyrimidinyl)-4H-1,2,4-triazol-3-yl)-1-methoxy-2-propanesulfonamide]	1.5 nM
CO[C@H](c1ncc(Cl)cn1)[C@H](C)S(=O)(=O)Nc1nnc(CC2CCC2)n1C1CCOCC1 [Example 25.0, (1R,2S)-1-(5-chloro-2-pyrimidinyl)-N-(5-(cyclobutylmethyl)-4-(tetrahydro-2H-pyran-4-yl)-4H-1,2,4-triazol-3-yl)-1-methoxy-2-propanesulfonamide]	370 nM
COc1cccc(OC)c1-n1c(C)nnc1NS(=O)(=O)[C@@H](C)[C@H](OC)c1ncc(C)cn1 [Example 26.0, (1R,2S)-N-(4-(2,6-dimethoxyphenyl)-5-methyl-4H-1,2,4-triazol-3-yl)-1-methoxy-1-(5-methylpyrimidin-2-yl)propane-2-sulfonamide]	120 nM
COc1ncnc(OC)c1-n1c(CC2CC2)nnc1NS(=O)(=O)[C@@H](C)[C@H](OC)c1ncc(Cl)cn1 [Example 27.0, (1R,2S)-1-(5-chloro-2-pyrimidinyl)-N-(5-(cyclopropylmethyl)-4-(4,6-dimethoxy-5-pyrimidinyl)-4H-1,2,4-triazol-3-yl)-1-methoxy-2-propanesulfonamide]	7.6 nM
COc1ncnc(OC)c1-n1c(CC2CCCC2)nnc1NS(=O)(=O)[C@@H](C)[C@H](OC)c1ncc(Cl)cn1 [Example 28.0, (1R,2S)-1-(5-chloro-2-pyrimidinyl)-N-(5-(cyclopentylmethyl)-4-(4,6-dimethoxy-5-pyrimidinyl)-4H-1,2,4-triazol-3-yl)-1-methoxy-2-propanesulfonamide]	4.5 nM
COc1ncnc(OC)c1-n1c(CC2CCCCC2)nnc1NS(=O)(=O)[C@@H](C)[C@H](OC)c1ncc(Cl)cn1 [Example 29.0, (1R,2S)-1-(5-chloro-2-pyrimidinyl)-N-(5-(cyclohexylmethyl)-4-(4,6-dimethoxy-5-pyrimidinyl)-4H-1,2,4-triazol-3-yl)-1-methoxy-2-propanesulfonamide]	21 nM
COCc1nnc(NS(=O)(=O)[C@@H](C)[C@@H](OC(C)C)c2ncc(C)cn2)n1-c1c(F)cccc1F [Example 30.0, (1S,2S)-N-(4-(2,6-difluorophenyl)-5-(methoxymethyl)-4H-1,2,4-triazol-3-yl)-1-(1-methylethoxy)-1-(5-methyl-2-pyrimidinyl)-2-propanesulfonamide]	240 nM
COc1ncnc(OC)c1-n1c(CC(C)C)nnc1NS(=O)(=O)[C@@H](C)[C@H](OC)c1ncc(Cl)cn1 [Example 31.0, (1R,2S)-1-(5-chloro-2-pyrimidinyl)-N-(4-(4,6-dimethoxy-5-pyrimidinyl)-5-(2-methylpropyl)-4H-1,2,4-triazol-3-yl)-1-methoxy-2-propanesulfonamide]	7.6 nM
COCCc1nnc(NS(=O)(=O)[C@@H](C)[C@H](C)c2ncc(Cl)cn2)n1-c1c(OC)cccc1OC [Example 32.0, (2S,3R)-3-(5-chloro-2-pyrimidinyl)-N-(4-(2,6-dimethoxyphenyl)-5-(2-methoxyethyl)-4H-1,2,4-triazol-3-yl)-2-butanesulfonamide]	10 nM
COc1ncnc(OC)c1-n1c(CC2COC2)nnc1NS(=O)(=O)[C@@H](C)[C@H](C)c1ncc(Cl)cn1 [Example 33.0, (2S,3R)-3-(5-chloro-2-pyrimidinyl)-N-(4-(4,6-dimethoxy-5-pyrimidinyl)-5-(3-oxetanylmethyl)-4H-1,2,4-triazol-3-yl)-2-butanesulfonamide]	210 nM
COc1cccc(OC)c1-n1c(CC2COC2)nnc1NS(=O)(=O)[C@@H](C)[C@H](C)c1ncc(Cl)cn1 [Example 34.0, (2S,3R)-3-(5-chloro-2-pyrimidinyl)-N-(4-(2,6-dimethoxyphenyl)-5-(3-oxetanylmethyl)-4H-1,2,4-triazol-3-yl)-2-butanesulfonamide]	16 nM
COc1cccc(OC)c1-n1c(Cc2ccccn2)nnc1NS(=O)(=O)[C@@H](C)[C@H](C)c1ncc(Cl)cn1 [Example 35.0, (2S,3R)-3-(5-chloro-2-pyrimidinyl)-N-(4-(2,6-dimethoxyphenyl)-5-(2-pyridinylmethyl)-4H-1,2,4-triazol-3-yl)-2-butanesulfonamide]	32 nM
COc1cccc(OC)c1-n1c(CCc2ccco2)nnc1NS(=O)(=O)[C@@H](C)[C@H](C)c1ncc(Cl)cn1 [Example 36.0, (2S,3R)-3-(5-chloro-2-pyrimidinyl)-N-(4-(2,6-dimethoxyphenyl)-5-(2-(2-furanyl)ethyl)-4H-1,2,4-triazol-3-yl)-2-butanesulfonamide]	2.9 nM
COc1cccc(OC)c1-n1c(CS(C)(=O)=O)nnc1NS(=O)(=O)[C@@H](C)[C@H](C)c1ncc(Cl)cn1 [Example 37.0, (2S,3R)-3-(5-chloro-2-pyrimidinyl)-N-(4-(2,6-dimethoxyphenyl)-5-((methylsulfonyl)methyl)-4H-1,2,4-triazol-3-yl)-2-butanesulfonamide]	340 nM
COc1cccc(OC)c1-n1c(Cc2ccsc2)nnc1NS(=O)(=O)[C@@H](C)[C@H](C)c1ncc(Cl)cn1 [Example 38.0, (2S,3R)-3-(5-chloro-2-pyrimidinyl)-N-(4-(2,6-dimethoxyphenyl)-5-(3-thiophenylmethyl)-4H-1,2,4-triazol-3-yl)-2-butanesulfonamide]	6 nM
